From patent US9518041B2, “(+)-5-(3,4-difluorophenyl)-5-[(3-methyl-2-oxopyridin-1(2H)-yl)methyl]imidazolidine-2,4-dione and drug containing same” (KAKEN PHARMACEUTICAL CO., LTD., priority 2013, dated 2016)

Legend:
[1] = molecular target: T1, human MMP-2 (Homo sapiens, UniProt P08253); assay: MMP-2 inhibition test; format: biochemical; details: read-out: Inhibitory activity (IC50, nM) MMP-2
T1 construct: purchased Calbiochem 444213
T1 sequence (P08253 110-660): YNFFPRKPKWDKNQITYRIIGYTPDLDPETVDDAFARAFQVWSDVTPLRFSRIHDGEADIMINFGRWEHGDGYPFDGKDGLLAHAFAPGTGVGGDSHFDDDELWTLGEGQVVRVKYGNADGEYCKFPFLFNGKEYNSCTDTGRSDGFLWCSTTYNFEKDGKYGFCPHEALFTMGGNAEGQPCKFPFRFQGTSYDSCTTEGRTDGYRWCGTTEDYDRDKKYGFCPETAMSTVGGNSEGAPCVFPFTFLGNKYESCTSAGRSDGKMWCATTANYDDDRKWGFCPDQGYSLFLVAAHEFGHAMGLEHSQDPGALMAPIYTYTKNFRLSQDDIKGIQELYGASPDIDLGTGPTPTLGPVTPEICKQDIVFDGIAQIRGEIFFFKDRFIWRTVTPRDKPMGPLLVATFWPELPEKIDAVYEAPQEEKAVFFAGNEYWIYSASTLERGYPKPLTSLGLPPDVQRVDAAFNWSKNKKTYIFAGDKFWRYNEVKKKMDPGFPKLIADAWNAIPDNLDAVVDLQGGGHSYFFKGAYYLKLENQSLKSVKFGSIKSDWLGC
Description: (§1) MMP inhibition tests can be carried out, for example, using a fluorescent synthetic substrate based on the methods described in Bickett et al. (D. Mark Bickett et al., Anal. Biochem., 1993, 212, 58-64) and Nagase et al. (H. Nagase et al., J. Biol. Chem., 1994, 269, 20952-20957). The method for each MMP inhibition test is shown below.
90 μL (5 ng) of human MMP-2 (Calbiochem #444213) was mixed with 10 μL of 10 mM APMA, and activated by reacting at 37° C. for 1 hour. 10 μL of the resultant enzyme solution was diluted to 90 μL with an assay buffer A. The mixture was added to 90 μL of a 20 μM fluorescent substrate (MOCAc((7-methoxycoumarin-4-yl)acetyl)-Pro-Leu-Gly-Leu-A2pr(Dnp)-Ala-Arg-NH2, Peptide Institute Inc., #3163-v) (SEQ ID NO: 3) prepared with an assay buffer B, and reacted at 37° C. for 5 hours. Enzyme activity was then determined by measuring with a fluorescence intensity meter (Labsystems, Fluoroskan Ascent) at an excitation wavelength of 320 nm and a measurement wavelength of 405 nm.
(§2) From the enzyme activity in the presence or the absence of the test substance, the inhibition rate was determined, and the 50% inhibitiory concentration (IC50) of the test substance was calculated.

[2] = molecular target: T2, human MMP-3 (Homo sapiens, UniProt P08254); assay: MMP-3 inhibition test; format: biochemical; details: read-out: Inhibitory activity (IC50, nM) MMP-3
T2 construct: purchased Calbiochem 444217
Description: as §1
90 μL (1.5 ng) of human MMP-3 (Calbiochem #444217) prepared with an assay buffer A was added to 90 μL of a 20 μM fluorescent substrate NFF-3 (MOCAc((7-methoxycoumarin-4-yl)acetyl)-Arg-Pro-Lys-Pro-Val-Glu-Nva-Trp-Arg-Lys(Dnp)-NH2, Peptide Institute Inc., #3168-v) (SEQ ID NO: 4) prepared with an assay buffer B, and reacted at 37° C. for 4 hours. Enzyme activity was then determined by measuring with a fluorescence intensity meter (Labsystems, Fluoroskan Ascent) at an excitation wavelength of 320 nm and a measurement wavelength of 405 nm.
as §2

[3] = Pharmacokinetic study after intravenous and percutaneous administration in hairless mice; format: in vivo; details: 1 w/v % Macrogol 400 solution, 50 μL/animal, occlusive
Description: Test substances (0.1 to 0.5 mg/5 mL/kg) were administered by bolus injection into the tail vein of hairless mice under anesthesia.
A 4 cm^2 administration site (2 cm×2 cm) was marked on the back skin of hairless mice under anesthesia (fed) using an oil-based marker. Test substances were applied to the administration site at 50 μL/animal (1 w/v % Macrogol 400 solution). Gauze (BEMCOT®) about 2 cm×2 cm in size was fixed using double-sided tape to an approximately 4 cm×4 cm polyethylene sheet, and the gauze face was placed over the face on which the test substance had been applied. An adhesive elastic bandage (Elastopore, about 10 cm) was stuck over the gauze to fix and protect the face on which the test substance had been applied. The mice were then returned to its cage. Twenty-four hours after administration, occlusive application was confirmed to have been properly carried out. […]
The cryopreserved plasma obtained by the above method was thawed at room temperature. After removing the protein using methanol, the concentration of the test substance in the plasma was measured. […]
Transdermal absorption rate was calculated using the following equation by calculating the AUC (area under the curve of the concentration in plasma) from the plasma concentration of the test substance measured by the method described above. […]

T2 sequence (P08254 100-272 limits assumed): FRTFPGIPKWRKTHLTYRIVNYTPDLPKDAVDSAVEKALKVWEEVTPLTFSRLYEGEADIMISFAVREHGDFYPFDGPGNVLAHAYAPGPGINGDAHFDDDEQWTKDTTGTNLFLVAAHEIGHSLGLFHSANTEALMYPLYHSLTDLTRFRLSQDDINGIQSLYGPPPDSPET

## Cc1cccn(CC2(c3ccc(F)c(F)c3)NC(=O)NC2=O)c1=O (single isomer, unassigned; (+)) [(+)-5-(3,4-difluorophenyl)-5-[(3-methyl-2-oxopyridin-1(2H)-yl)methyl]imidazolidine-2,4-dione]
[1]
  IC50: > 10000 nM
[2]
  IC50: > 10000 nM
[3]
  Transdermal absorbability after percutaneous administration: good transdermal absorbability
